Assay results: ChEMBL document CHEMBL3124847, “Membrane damaging activity of a maslinic acid analog” (Eur J Med Chem, 2014)
Values after ≈ are worked out from the molar mass of the structure shown. Active and inactive are the calls of the source. No cut-off for these calls is given here.

Tests used:
[1] = test system: NIH3T3; assay: Cytotoxicity against mouse NIH/3T3 cells after 96 hrs by SRB assay; assay type: cell-based; conditions: NIH3T3, 96 h
[2] = test system: A2780; assay: Induction of apoptosis in human A2780 cells assessed as caspase 8 activity at 60 uM after 12 hrs relative to control; assay type: functional
[3] = test system: A2780; assay: Induction of apoptosis in human A2780 cells assessed as caspase 3 activity at 60 uM after 6 hrs relative to control; assay type: functional
[4] = Cytotoxicity against human 518A2 cells after 96 hrs by SRB assay; assay type: functional, cell-based; conditions: 518A2, 96 h
[5] = test system: HT-29; assay: Cytotoxicity against human HT-29 cells after 96 hrs by SRB assay; assay type: functional, cell-based; conditions: HT-29, 96 h
[6] = test system: A2780; assay: Induction of apoptosis in human A2780 cells assessed as DNA fragmentation at 0.024 to 0.060 mM after 6 to 24 hrs by agarose gel electrophoresis; assay type: functional, cell-based
[7] = test system: A2780; assay: Induction of apoptosis in human A2780 cells assessed as caspase 9 activity at 60 uM after 12 hrs relative to control; assay type: functional
[8] = test system: MCF7; assay: Cytotoxicity against human MCF7 cells after 96 hrs by SRB assay; assay type: functional, cell-based; conditions: MCF7, 96 h
[9] = test system: A2780; assay: Induction of apoptosis in human A2780 cells assessed as caspase 9 activity at 24 uM after 6 hrs relative to control; assay type: functional
[10] = test system: A2780; assay: Induction of apoptosis in human A2780 cells assessed as caspase 9 activity at 60 uM after 24 hrs relative to control; assay type: functional
[11] = test system: A2780; assay: Cell cycle arrest in human A2780 cells assessed as accumulation at S phase at 24 uM after 6 hrs by annexin V/propidium iodide staining-based FACS analysis; assay type: functional
[12] = test system: A2780; assay: Induction of apoptosis in human A2780 cells assessed as caspase 8 activity at 24 uM after 6 hrs relative to control; assay type: functional
[13] = test system: A2780; assay: Induction of apoptosis in human A2780 cells assessed as chromatin condensation at 24 to 60 uM after 24 hrs by acridine orange/propidium iodide staining-based fluorescence microscopy; assay type: functional, cell-based
[14] = test system: A2780; assay: Induction of apoptosis in human A2780 cells at 2 to 6 times IC50 after 6 to 24 hrs by acridine orange/propidium iodide staining-based fluorescence microscopy; assay type: functional, cell-based
[15] = test system: A2780; assay: Induction of apoptosis in human A2780 cells assessed as caspase 3 activity at 24 uM after 6 hrs relative to control; assay type: functional
[16] = test system: A549; assay: Cytotoxicity against human A549 cells after 96 hrs by SRB assay; assay type: functional, cell-based; conditions: A549, 96 h
[17] = test system: A2780; assay: Induction of apoptosis in human A2780 cells assessed as caspase 9 activity at 24 uM after 12 hrs relative to control; assay type: functional
[18] = test system: A2780; assay: Induction of apoptosis in human A2780 cells assessed as caspase 9 activity at 60 uM after 6 hrs relative to control; assay type: functional
[19] = test system: A2780; assay: Cell cycle arrest in human A2780 cells assessed as early detachment of cells at 24 to 60 uM after 24 hrs by annexin V/propidium iodide staining-based FACS analysis; assay type: functional
[20] = test system: A2780; assay: Induction of apoptosis in human A2780 cells assessed as phosphatidylserine externalization at 60 uM after 6 hrs by annexin V/propidium iodide staining-based FACS analysis; assay type: functional
[21] = test system: A2780; assay: Cytotoxicity against human A2780 cells after 96 hrs by SRB assay; assay type: functional, cell-based; conditions: A2780, 96 h
[22] = test system: A2780; assay: Induction of apoptosis in human A2780 cells assessed as caspase 3 activity at 24 uM after 24 hrs relative to control; assay type: functional
[23] = test system: A2780; assay: Induction of apoptosis in human A2780 cells assessed as secondary necrotic cells at 24 to 60 uM after 6 to 24 hrs by annexin V/propidium iodide staining-based FACS analysis; assay type: functional, cell-based
[24] = test system: A2780; assay: Induction of apoptosis in human A2780 cells assessed as caspase 8 activity at 60 uM after 24 hrs relative to control; assay type: functional
[25] = test system: A2780; assay: Induction of apoptosis in human A2780 cells assessed as caspase 3 activity at 60 uM after 12 hrs relative to control; assay type: functional
[26] = test system: A2780; assay: Induction of apoptosis in human A2780 cells assessed as caspase 8 activity at 24 uM after 24 hrs relative to control; assay type: functional
[27] = Solubility of the compound in buffer at 10 uM after 90 mins by HPLC analysis; assay type: physicochemical
[28] = test system: A2780; assay: Cell cycle arrest in human A2780 cells assessed as accumulation at G1/G0 phase at 12 uM after 12 hrs by annexin V/propidium iodide staining-based FACS analysis; assay type: functional
[29] = test system: A2780; assay: Induction of apoptosis in human A2780 cells assessed as caspase 3 activity at 60 uM after 24 hrs relative to control; assay type: functional
[30] = test system: A2780; assay: Induction of apoptosis in human A2780 cells assessed as caspase 8 activity at 24 uM after 12 hrs relative to control; assay type: functional
[31] = test system: A2780; assay: Induction of apoptosis in human A2780 cells assessed as caspase 9 activity at 24 uM after 24 hrs relative to control; assay type: functional
[32] = test system: A2780; assay: Induction of apoptosis in human A2780 cells assessed as cholesterol crystal formation after 24 hrs by acridine orange/propidium iodide staining-based fluorescence microscopy; assay type: functional, cell-based
[33] = test system: 8505C; assay: Cytotoxicity against human 8505C cells after 96 hrs by SRB assay; assay type: functional, cell-based
[34] = test system: A2780; assay: Induction of apoptosis in human A2780 cells assessed as cholesterol crystal formation at 24 to 60 uM by acridine orange/propidium iodide staining-based fluorescence microscopy; assay type: functional, cell-based; conditions: TDE = time-dependent effect
[35] = test system: A2780; assay: Induction of apoptosis in human A2780 cells assessed as cell shrinkage at 24 to 60 uM after 24 hrs by acridine orange/propidium iodide staining-based fluorescence microscopy; assay type: functional
[36] = test system: A2780; assay: Induction of apoptosis in human A2780 cells assessed as caspase 8 activity at 60 uM after 6 hrs relative to control; assay type: functional
[37] = test system: A2780; assay: Induction of apoptosis in human A2780 cells assessed as caspase 3 activity at 24 uM after 12 hrs relative to control; assay type: functional
[38] = test system: A2780; assay: Induction of apoptosis in human A2780 cells assessed as caspase 9 activity at 1 uM after 24 hrs relative to control; assay type: functional
[39] = test system: A2780; assay: Induction of apoptosis in human A2780 cells assessed as caspase 3 activity at 1 uM after 24 hrs relative to control; assay type: functional
[40] = test system: A2780; assay: Induction of apoptosis in human A2780 cells assessed as caspase 3 activity at 1 uM after 12 hrs relative to control; assay type: functional
[41] = test system: A2780; assay: Induction of apoptosis in human A2780 cells assessed as chromatin condensation at 1 uM after 24 hrs by acridine orange/propidium iodide staining-based fluorescence microscopy; assay type: functional, cell-based
[42] = test system: A2780; assay: Induction of apoptosis in human A2780 cells assessed as caspase 9 activity at 1 uM after 6 hrs relative to control; assay type: functional
[43] = test system: A2780; assay: Induction of apoptosis in human A2780 cells assessed as caspase 8 activity at 1 uM after 24 hrs relative to control; assay type: functional
[44] = test system: A2780; assay: Induction of apoptosis in human A2780 cells assessed as cholesterol crystal formation at 1 uM by acridine orange/propidium iodide staining-based fluorescence microscopy; assay type: functional, cell-based; conditions: TDE = time-dependent effect
[45] = test system: A2780; assay: Induction of apoptosis in human A2780 cells assessed as caspase 9 activity at 1 uM after 12 hrs relative to control; assay type: functional
[46] = test system: A2780; assay: Induction of apoptosis in human A2780 cells assessed as cell shrinkage at 1 uM after 24 hrs by acridine orange/propidium iodide staining-based fluorescence microscopy; assay type: functional
[47] = test system: A2780; assay: Induction of apoptosis in human A2780 cells assessed as caspase 8 activity at 1 uM after 6 hrs relative to control; assay type: functional
[48] = test system: A2780; assay: Induction of apoptosis in human A2780 cells assessed as caspase 3 activity at 1 uM after 6 hrs relative to control; assay type: functional
[49] = test system: A2780; assay: Induction of apoptosis in human A2780 cells assessed as caspase 8 activity at 1 uM after 12 hrs relative to control; assay type: functional

CC1(C)CC[C@]2(C(=O)O)CC[C@]3(C)C(=CC[C@@H]4[C@@]5(C)C[C@@H](O)[C@H](O)C(C)(C)[C@@H]5CC[C@]43C)[C@@H]2C1 [MASLINIC ACID]
IC50 [1]: 21.1 µM

CC1(C)CC[C@]2(C(=O)OCCCOc3ccccc3)CC[C@]3(C)C(=CC[C@@H]4[C@@]5(C)C[C@@H](O)[C@H](O)C(C)(C)[C@@H]5CC[C@]43C)[C@@H]2C1
Activity [2]: 44% | Activity [3]: 29% | IC50 [4]: 12.6 µM | IC50 [5]: 12.5 µM | Activity [6]: Active | Activity [7]: 2% | IC50 [8]: 13.6 µM | Activity [9]: 0% | Activity [10]: 21% | Activity [11]: Active | Activity [12]: 2% | Activity [13]: Active | Activity [14]: Active | Activity [15]: 2% | IC50 [16]: 13.7 µM | Activity [17]: -2% | Activity [18]: 3% | Activity [19]: Active | Activity [20]: 80% | IC50 [21]: 10.6 µM | Activity [22]: 25% | Activity [23]: Active | IC50 [1]: 12.7 µM | Activity [24]: 39% | Activity [25]: 37% | Activity [26]: 27% | solubility at 1.5 h, 10 µM [27]: 110 µM (≈ 66.5 µg/mL) | Activity [28]: Active | Activity [29]: 31% | Activity [30]: 1% | Activity [31]: 6% | Activity [32]: Dose-dependent effect | IC50 [33]: 13.3 µM | Activity [34]: tde | Activity [35]: Active | Activity [36]: 25% | Activity [37]: 1%

CN[C@@H]1C[C@H]2O[C@@](C)([C@@H]1OC)n1c3ccccc3c3c4c(c5c6ccccc6n2c5c31)C(=O)NC4 [STAUROSPORINE]
Activity [38]: 33% | Activity [39]: 57% | Activity [40]: 52% | Activity [41]: Active | Activity [42]: 38% | Activity [43]: 79% | Activity [44]: tde | Activity [45]: 3% | Activity [46]: Active | Activity [47]: 51% | Activity [48]: 68% | Activity [32]: Dose-dependent effect | Activity [49]: 52%
